Patent US4363816A, “Tricyclic pyrroles, their compositions and their use” (BYK Gulden Lomberg Chemische Fabrik Gesellschaft mit …, priority 1981, dated 1982)
Where two headings read alike, the source gives them in different places.

Assays:
gastric secretion = assay: Inhibition of gastric secretion in rats; type: in vivo; conditions: 4 hours after administration of the antiulcerogenic ED50
Method: (§1) The effect of the compounds according to the invention on the formation, in rats, of gastric ulcers provoked by a pylorus ligature and 10 mg/kg of acetylsalicylic acid and on the inhibition of gastric secretion in rats is shown in the following table:
^(+) % inhibition of the gastric secretion (in %) 4 hours after
administration of the antiulcerogenic ED50
(§2) The antiulcerogenic action was tested in accordance with the method using the so-called Shay rat: Rats (female, 180 to 200 g, 4 animals per cage on a high grid) which had been fasted for 24 hours were subjected to ulcer provocation by pylorus ligature (under diethyl ether anaesthesia) and oral administration of 100 mg/10 ml/kg of acetylsalicyclic acid. The substances to be tested are administered orally (10 ml/kg) 1 hour before the pylorus ligature. The wound is closed by means of Michel clamps. 4 hours thereafter, the animals are killed under ether anaesthesia by atlas dislocation, and the stomach is removed. The stomach is opened longitudinally and fixed to a cork tile after the amount of gastric juice secreted (volume) has been determined, the number and size (=diameter) of ulcers present are determined with a stereomicroscope with 10-fold magnification. The product of the degree of severity (according to the following rating scale) and the number of ulcers serves as the individual ulcer index.

[1] = test system: gastric ulcers provoked by a pylorus ligature and acetylsalicylic acid; assay: Antiulcerogenic action (protective action on the stomach), Shay rat: pylorus ligature plus oral acetylsalicylic acid; type: in vivo, rats (female); conditions: for ED50: Rattus norvegicus, po, read-out: Protective action on the stomach, ED50
Method: as §1
(§3) compared with the control group
(§4) TQ = therapeutic quotient LD50 /ED50
as §2
(§5) ulcer diameter 0.1-1.4 mm 1
(§6) The reduction in the average ulcer index of each treated group compared with that of the control group (=100%) serves as a measure of the antiulcerogenic effect. The ED50 designates the dose which reduces the average ulcer index by 50%.

[2] = Determination of toxicity (LD50, intravenous, mice); conditions: mouse, in vivo; intravenous administration to mice; observation 7 days; dose at which 50% of the animals die
Method: LD50 = dose at which 50% of the animals die
The toxicity investigations are carried out on female NMRI mice (body weight: 23 to 30 g). The animals (5 animals per dose) receive feed and water ad libitum. Various doses of the substances are administered intravenously (injection time: 1 minute). The observation period is 7 days. The LD50 (the dose at which 50% of the animals die) is determined by means of linear regression.

[3] = Antiulcerogenic action (protective action on the stomach), Shay rat: pylorus ligature plus oral acetylsalicylic acid; type: in vivo, rats (female); conditions: rat, in vivo; LD50 i.v. mice / ED50 p.o. rats; read-out: TQ LD50/ED50 (therapeutic quotient)
Method: as §1, §3, §4, §2, §5, §6

For `CC1(C)[C@@H](OC(=O)CCC(=O)O)CC[C@]2(C)[C@H]3C(=O)C=C4[C@@H]5C[C@@](C)(C(=O)O)CC[C@]5(C)CC[C@@]4(C)[C@]3(C)CC[C@@H]12` [Serial No. 1, Carbenoxolone, reference compound], the “Gastric Secretion, % inhibition in rats” value (gastric secretion) was 7%, the ED50 [1] was 70 mg/kg and the “antiulcerogenic action, dose/action curve (in words)” value ([1]; Shay rat, up to 300 mg/kg for compound 1) was “the dose/action curve is then very severely flattened so that no substantial increase in the antiulcerogenic action can be achieved even at 300 mg/kg”.
With `CCN(CC)CC(=O)N1c2ccccc2NC(=O)c2c1c(C)cn2C` [Serial No. 5, 4-Diethylaminoacetyl-1,3-dimethyl-1,4,9,10-tetrahydropyrrolo[3,2-b][1,5]benzodiazepin-10-one] the LD50 at 168 h [2] was 105 mg/kg, the “Gastric Secretion, % inhibition in rats” value (gastric secretion) was 20% and the therapeutic quotient (LD50/ED50) [3] was 17.5. It also gave an ED50 [1] of 6 mg/kg.
For `Cc1cn(C)c2c1N(C(=O)CN(C)C)c1ccccc1NC2=O` [Serial No. 6, 1,3-Dimethyl-4-dimethylaminoacetyl-1,4,9,10-tetrahydropyrrolo[3,2-b][1,5]benzodiazepin-10-one], the “Gastric Secretion, % inhibition in rats” value (gastric secretion) was 10% and the ED50 ([1]; peroral administration to rats 1 hour before pylorus ligature, dose which reduces the ulcer index by 50% compared with the control group) was 6.5 mg/kg.
For `CCCN(CCC)CC(=O)N1c2ccccc2NC(=O)c2c1c(C)cn2C` [Serial No. 7, 1,3-Dimethyl-4-di-(n-propyl)aminoacetyl-1,4,9,10-tetrahydropyrrolo[3,2-b][1,5]benzodiazepin-10-one], the LD50 at 168 h [2] was 110 mg/kg, the “Gastric Secretion, % inhibition in rats” value (gastric secretion) was 10% and the therapeutic quotient (LD50/ED50) [3] was 16.9. It also gave an ED50 [1] of 6.5 mg/kg.
For `Cc1cn(C)c2c1N(C(=O)CN1CCN(C)CC1)c1ccccc1NC2=O` [compound 2], the LD50 at 168 h [2] was 100 mg/kg, the “Gastric Secretion, % inhibition in rats” value (gastric secretion) was 25% and the therapeutic quotient (LD50/ED50) [3] was 71.4. It also gave an ED50 [1] of 1.4 mg/kg.
In the case of `Cc1cn(C)c2c1N(C(=O)CN1CCCCC1)c1ccccc1NC2=O` [compound 3], the LD50 at 168 h [2] is reported as 95 mg/kg, the “Gastric Secretion, % inhibition in rats” value (gastric secretion) is reported as 3% and the therapeutic quotient (LD50/ED50) [3] is reported as 21.1. It also gave an ED50 [1] of 4.5 mg/kg.
With `Cc1cn(C)c2c1N(C(=O)CN1CCCC1)c1ccccc1NC2=O` [compound 4] the LD50 at 168 h [2] was 100 mg/kg, the “Gastric Secretion, % inhibition in rats” value (gastric secretion) was 0% and the therapeutic quotient (LD50/ED50) [3] was 45.5. It also gave an ED50 [1] of 2.2 mg/kg.
In the case of `CCNCC(=O)N1c2ccccc2NC(=O)c2c1c(C)cn2C` [compound 8], the LD50 at 168 h [2] is reported as 140 mg/kg, the “Gastric Secretion, % inhibition in rats” value (gastric secretion) is reported as 20% and the therapeutic quotient (LD50/ED50) [3] is reported as 25.5. The ED50 [1] was 5.5 mg/kg.
With `Cc1cn(C)c2c1N(C(=O)CCN1CCCC1)c1ccccc1NC2=O` [compound 9] the LD50 at 168 h [2] was 70 mg/kg, the “Gastric Secretion, % inhibition in rats” value (gastric secretion) was 25% and the therapeutic quotient (LD50/ED50) [3] was 11.7. The ED50 [1] was 6 mg/kg.
For `Cc1cn(C)c2c1N(C(=O)CCN(C)C)c1ccccc1NC2=O` [compound 10], the LD50 at 168 h [2] was 120 mg/kg, the “Gastric Secretion, % inhibition in rats” value (gastric secretion) was 21% and the therapeutic quotient (LD50/ED50) [3] was 26.7. The ED50 [1] was 4.5 mg/kg.
